# Values quoted from earlier work as cited in PMC11956011, “An Amazing 30-Year Journey around the DABO Family: A Medicinal Chemistry Lesson on a Versatile Class of Non-nucleoside HIV-1 Reverse Transcriptase Inhibitors” (Journal of Medicinal Chemistry, 2025).
# Like-named read-outs stand apart in the source and are kept apart here.
# What was measured:
# [1] = tested on: colon carcinoma HT-29 cells
# [2] = tested on: EFV^R (K103R + V179D + P225H mutant); conditions: Fig 9
# A17 (Y181C+K103N) = conditions: Fig 9
# N119 (Y181C mutant) = conditions: for EC50: Fig 9; for ED50: HIV-1 119: Fig 4; for Fold-resistance HIV-1 119 (ED50): Fig 4, in parentheses
# HIV-1 [3] = conditions: for SI: Fig 10
# mock-infected cells = conditions: for CD50: Fig 4
# [4] = tested on: Y188L HIV-1 mutant strain
# HIV-1 NL4-3 wt = conditions: read-out: EC50: NL4-3 wt
# [5] = tested on: IRLL98 clinical isolate (K101Q, Y181C, G190A); conditions: Fig 9
# [6] = tested on: HIV-1 RT (WT, recombinant)
# Y181I HIV-1 RT = conditions: for Fold-resistance Y181I RT (ID50): Fig 10, in brackets
# [7] = tested on: K103N HIV-1 mutant strain; conditions: for Fold-resistance K103N (EC50): Fig 10, in brackets
# [8] = tested on: clinical isolates KM018, TC-2, and WAN; conditions: read-out: EC50 against clinical isolates KM018, TC-2, and WAN
# HIV-1IIIB = conditions: for ED50: HIV-1 IIIB: Fig 4
# L100I HIV-1 RT = conditions: for ID50: L100I: Fig 10; for Fold-resistance L100I RT (ID50): Fig 10, in brackets
# [9] = tested on: Y181C HIV-1 mutant strain; conditions: for Fold-resistance Y181C (EC50): Fig 10, in brackets
# malaria = tested on: malaria; set-up: method as in PMID 31191911
# HIV-1 [10] = tested on: HIV-1; set-up: method as in PMID 8602869; conditions: day 3 and 4 p.i.; read-out: p24 inhibition in PBMC-infected cells IC50
# HIV-1 [11] = tested on: HIV-1; set-up: method as in PMID 8602869; conditions: read-out: syncytia reduction assay in MT-2-infected cells IC50
# [12] = rats
# [13] = tested on: non-small-cell lung cancer HOP-92 cells; set-up: method as in PMID 21849221; conditions: at 10 μM
# [14] = more water-soluble
# HBV = conditions: HBV-infected cells; read-out: HBV DNA IC50
# Vero cells = tested on: Vero cells; set-up: method as in doi:10.1016/0223-5234(92)90009-P; conditions: Fig 2
# C8166 cells = tested on: C8166 cells; set-up: method as in doi:10.1016/0223-5234(92)90009-P; conditions: Fig 2
# [15] = tested on: E138K HIV-1 mutant strain
structure (smiles),measurement,setting,value
COc1cc(-c2nc(SCC(=O)c3ccc(Cl)cc3)[nH]c(=O)c2C#N)ccc1OCc1ccccc1 [compound 197],LC50: MCF7,breast cancer MCF7 cells,1.9 µg/mL
same,LC50: HePG2,HePG2 cells,20.9 µg/mL
same,LC50: HT29,[1],10.1 µg/mL
Cc1cc(C)cc(Cc2nc(Sc3ccccc3)[nH]c(=O)c2C)c1 [compound 83],EC50,[2],80 µM
same,EC50,A17 (Y181C+K103N),> 100 µM
same,EC50,N119 (Y181C mutant),5 µM
same,EC50,"HIV-1 [3]; read-out: EC50: HIV-1 wt, Fig 9",1700 nM
same,CC50,mock-infected cells; Fig 9,> 100 µM
COc1ccc(CSc2nc(Cc3c(Cl)cccc3Cl)c(C)c(=O)[nH]2)cc1 [compound 76],EC50,[4]; Fig 9,> 32 µM
same,EC50,HIV-1 NL4-3 wt; Fig 9,0.007 µM
same,EC50,[5],0.047 µM
same,ID50: WT,[6]; Fig 9,0.004 µM
same,ID50: Y181I,Y181I HIV-1 RT; Fig 9,150 µM
same,EC50,[7]; Fig 9,4.7 µM
same,CC50,mock-infected cells; Fig 9,32 µM
Cc1c(O)nc(Sc2ccc(Cl)cc2)nc1Cc1c(F)cccc1F [compound 81],EC50,[4]; Fig 9,> 66.1 µM
same,EC50,HIV-1 NL4-3 wt; Fig 9,0.1 µM
same,EC50,[5],> 66.1 µM
same,ID50: WT,[6]; Fig 9,22 µM
same,ID50: Y181I,Y181I HIV-1 RT; Fig 9,> 400 µM
same,EC50,[7]; Fig 9,8.01 µM
same,CC50,mock-infected cells; Fig 9,> 66.1 µM
CCc1c(CC2CCCCC2)nc(SCC(=O)c2ccccc2)[nH]c1=O [compound 177],EC50,[8],0.00874 to 0.0418 µM
same,EC50,"HIV-1IIIB; read-out: EC50 anti-HIV-1 activity, further studies",0.0024 µM
same,EC50,"HIV-1 [3]; read-out: EC50 anti-HIV-1 activity, first report, C8166 cells",0.012 nM
same,EC50,HIV-1 [3]; read-out: EC50 vs WT HIV-1,200 nM
CCc1c(Cc2c(F)cccc2Cl)nc(SCC(=O)c2ccc(F)cc2)[nH]c1=O [compound 103],EC50,[4]; Fig 10,> 57 µM
same,EC50,HIV-1 NL4-3 wt; Fig 10,0.005 µM
same,ID50: L100I,L100I HIV-1 RT,5.6 µM
same,Fold-resistance L100I RT (ID50),L100I HIV-1 RT,170
same,ID50: WT,[6]; Fig 10,0.033 µM
same,ID50: Y181I,Y181I HIV-1 RT; Fig 10,0.38 µM
same,Fold-resistance Y181I RT (ID50),Y181I HIV-1 RT,12
same,EC50,[9]; Fig 10,1.93 µM
same,Fold-resistance Y181C (EC50),[9],386
same,EC50,[7]; Fig 10,4.14 µM
same,Fold-resistance K103N (EC50),[7],828
same,SI,HIV-1 [3],> 11400
same,CC50,mock-infected cells; Fig 10,> 57 µM
O=C(CCCCSc1nc(-c2ccc(-c3ccccc3)cc2)cc(=O)[nH]1)NO [compound 195],outcome in in vivo malaria mouse model,malaria,failed
CC(C)c1c(Cc2c(Cl)cccc2Cl)nc(SCC(=O)c2ccccc2)[nH]c1=O [compound 102],EC50,[4]; Fig 10,5.5 µM
same,Fold-resistance Y188L (EC50),"[4]; Fig 10, in brackets",1375
same,EC50,HIV-1 NL4-3 wt; Fig 10,0.004 µM
same,ID50: L100I,L100I HIV-1 RT,10.1 µM
same,Fold-resistance L100I RT (ID50),L100I HIV-1 RT,326
same,ID50: WT,[6]; Fig 10,0.031 µM
same,ID50: Y181I,Y181I HIV-1 RT; Fig 10,16.8 µM
same,Fold-resistance Y181I RT (ID50),Y181I HIV-1 RT,542
same,EC50,[9]; Fig 10,0.11 µM
same,Fold-resistance Y181C (EC50),[9],27
same,EC50,[7]; Fig 10,5.1 µM
same,Fold-resistance K103N (EC50),[7],1275
same,SI,HIV-1 [3],> 14000
same,CC50,mock-infected cells; Fig 10,> 56 µM
CCc1c(Cc2cc(C)cc(C)c2)n2c(nc1=O)SCCOC2 [compound 25],ED50: HIV-1 IIIB,HIV-1IIIB,0.6 µM
same,ED50: HIV-1 119,N119 (Y181C mutant),19 µM
same,Fold-resistance HIV-1 119 (ED50),N119 (Y181C mutant),32
same,CD50,mock-infected cells,> 100 µM
Cc1cc(C)cc(Cc2nc(Sc3cccnc3)[nH]c(=O)c2C)c1 [compound 85],EC50,[2],55 µM
same,EC50,A17 (Y181C+K103N),> 55 µM
same,EC50,N119 (Y181C mutant),8 µM
Cc1c(O)nc(Sc2ccccc2)nc1Cc1c(F)cccc1F [compound 80],EC50,[4]; Fig 9,> 72.7 µM
same,EC50,HIV-1 NL4-3 wt; Fig 9,0.09 µM
same,EC50,[5],16.7 µM
same,ID50: WT,[6]; Fig 9,32 µM
same,ID50: Y181I,Y181I HIV-1 RT; Fig 9,> 400 µM
same,EC50,[7]; Fig 9,42.5 µM
same,CC50,mock-infected cells; Fig 9,> 72.7 µM
CCc1c(CC2CCCCC2)nc(SCC(=O)Nc2cc(F)cc(F)c2)[nH]c1=O [compound 211],ZIKV EC50 (Vero cells),ZIKV,inactive
"Nc1cc(Cl)nc(SCc2ccccc2)n1 [compound 19, 4-amino-2-(benzylthio)-6-chloropyrimidine]",IC50,HIV-1 [10],0.1 to 1 µM
same,cytotoxicity in PBMC-infected cells,PBMC,> 16 µM
same,cytotoxicity in MT-2-infected cells,MT-2 cells,> 16 µM
same,IC50,HIV-1 [11],0.4 to 4 µM
same,IC50,"[6]; Fig 4, read-out: RT assay IC50",50 to 80 µM
CCc1c(Cc2cc(C)cc(C)c2)nc2n(c1=O)COCCS2 [compound 26],ED50: HIV-1 IIIB,HIV-1IIIB,1.6 µM
same,ED50: HIV-1 119,N119 (Y181C mutant),6.3 µM
same,Fold-resistance HIV-1 119 (ED50),N119 (Y181C mutant),4
same,CD50,mock-infected cells,> 100 µM
CCc1c(CC2CCCCC2)nc(SCc2cc(-c3ccc(O)cc3)[nH]n2)[nH]c1=O [compound 180],pharmacokinetic properties and bioavailability (in words),[12],acceptable
CCc1c(CC2CCCCC2)nc(SCc2cc(-c3ccc(SC)cc3)[nH]n2)[nH]c1=O [compound 181],pharmacokinetic properties and bioavailability (in words),[12],acceptable
N#Cc1c(-c2c(Cl)cccc2Cl)nc(SCC(=O)c2ccc(Br)cc2)[nH]c1=O [compound 199],inhibitory effect toward HOP-92,[13],> 50%
COc1ccc(CCCSc2nc(O)c(C)c(Cc3c(Cl)cccc3Cl)n2)cc1 [compound 78],EC50,[4]; Fig 9,> 1 µM
same,EC50,HIV-1 NL4-3 wt; Fig 9,0.00044 µM
same,EC50,[5],0.11 µM
same,ID50: WT,[6]; Fig 9,0.037 µM
same,ID50: Y181I,Y181I HIV-1 RT; Fig 9,0.3 µM
same,EC50,[7]; Fig 9,> 1 µM
same,CC50,mock-infected cells; Fig 9,1 µM
COc1ccc(CCSc2nc(Cc3c(Cl)cccc3Cl)c(C)c(=O)[nH]2)cc1 [compound 77],EC50,[4]; Fig 9,6.9 µM
same,EC50,HIV-1 NL4-3 wt; Fig 9,< 0.00014 µM
same,EC50,[5],0.00022 µM
same,ID50: WT,[6]; Fig 9,0.026 µM
same,ID50: Y181I,Y181I HIV-1 RT; Fig 9,1.5 µM
same,EC50,[7]; Fig 9,0.87 µM
same,CC50,mock-infected cells; Fig 9,> 57 µM
COc1cccc(Sc2nc(Cc3cc(C)cc(C)c3)c(C)c(=O)[nH]2)c1 [compound 84],EC50,[2],100 µM
same,EC50,A17 (Y181C+K103N),> 100 µM
same,EC50,N119 (Y181C mutant),2 µM
same,CC50,mock-infected cells; Fig 9,> 100 µM
Cc1cc(C)cc(Cc2nc(Sc3cccc4ccccc34)[nH]c(=O)c2C)c1 [compound 86],EC50,[2],80 µM
same,EC50,A17 (Y181C+K103N),> 100 µM
same,EC50,N119 (Y181C mutant),5 µM
same,CC50,mock-infected cells; Fig 9,> 100 µM
CCc1c(CC2CCCCC2)nc(SCC(=O)c2ccc(OP(=O)(OC)OC)cc2)[nH]c1=O [compound 179],Water solubility with respect to 177,[14],17 fold
same,Potency against WT HIV-1 with respect to 177,HIV-1 [3]; more potent,20 fold
same,Cytotoxicity with respect to 177,mock-infected cells; more cytotoxic,4.5 times
O=c1[nH]c(SC2OC[C@H](O)[C@@H](O)[C@@H]2O)nc(Cc2ccccc2)c1Cc1ccccc1 (stereo partly shown) [compound 186],IC50,HBV,0.2 µM
COc1ccc(CSc2nc(O)c(C)c(Cc3c(F)cccc3F)n2)cc1 [compound 79],EC50,[4]; Fig 9,10 µM
same,EC50,HIV-1 NL4-3 wt; Fig 9,0.026 µM
same,EC50,[5],0.69 µM
same,ID50: WT,[6]; Fig 9,0.007 µM
same,EC50,[7]; Fig 9,0.69 µM
same,CC50,mock-infected cells; Fig 9,> 64 µM
O=c1[nH]c(SC2O[C@H](CO)[C@H](O)[C@@H](O)[C@@H]2O)nc(Cc2ccccc2)c1Cc1ccccc1 (stereo partly shown) [compound 185],IC50,HBV,0.2 µM
COc1ccncc1Sc1nc(Cc2c(Cl)cccc2Cl)c(C)c(=O)[nH]1 [compound 82],EC50,[4]; Fig 9,> 61.3 µM
same,EC50,HIV-1 NL4-3 wt; Fig 9,2.72 µM
same,EC50,[5],8.68 µM
same,ID50: WT,[6]; Fig 9,3.5 µM
same,ID50: Y181I,Y181I HIV-1 RT; Fig 9,> 400 µM
same,EC50,[9]; Fig 9,6.52 µM
same,EC50,[7]; Fig 9,> 61.3 µM
same,CC50,mock-infected cells; Fig 9,> 61.3 µM
CCCCOc1nc(Cc2ccc(OC)cc2)cc(=O)[nH]1 [compound 5],TD50 Vero,Vero cells,100 µg/mL
same,TD50 C8166,C8166 cells,100 µg/mL
CCc1c(Cc2c(F)cccc2Cl)nc(SCC(=O)Nc2ccccc2)[nH]c1=O [A compound similar to 105–108],EC50,[15],2.03 µM
same,EC50,[9],2.13 µM
same,EC50,HIV-1 [3]; read-out: EC50 against wild-type,190 nM
